Measurements taken from ChEMBL document CHEMBL5500354, “Novel selective agents for the degradation of AR/AR-V7 to treat advanced prostate cancer” (Eur J Med Chem, 2024).

Tests used:
LNCaP [1] = test: cells; conditions: Homo sapiens, 24 h, read-out: INH
Description: Antiproliferative activity against human LNCaP cells assessed as inhibition rate at 10 uM incubated for 24 hrs by CCK8 assay relative to control

CWR22R [2] = test: cells; conditions: Homo sapiens, 22Rv1, 24 h, read-out: INH
Description: Antiproliferative activity against human 22Rv1 cells assessed as inhibition rate at 10 uM incubated for 24 hrs by CCK8 assay relative to control

Androgen receptor [3] = molecular target: T1, Androgen receptor (Homo sapiens, UniProt P10275); test: Binding affinity to human androgen receptor transfected in HEK293 cell membrane co-transfected with ARC1 assessed as inhibition of [3H]-methyltrienolone binding to receptor incubated for 30 mins by competitive ligand binding assay
T1 sequence (P10275 whole entry): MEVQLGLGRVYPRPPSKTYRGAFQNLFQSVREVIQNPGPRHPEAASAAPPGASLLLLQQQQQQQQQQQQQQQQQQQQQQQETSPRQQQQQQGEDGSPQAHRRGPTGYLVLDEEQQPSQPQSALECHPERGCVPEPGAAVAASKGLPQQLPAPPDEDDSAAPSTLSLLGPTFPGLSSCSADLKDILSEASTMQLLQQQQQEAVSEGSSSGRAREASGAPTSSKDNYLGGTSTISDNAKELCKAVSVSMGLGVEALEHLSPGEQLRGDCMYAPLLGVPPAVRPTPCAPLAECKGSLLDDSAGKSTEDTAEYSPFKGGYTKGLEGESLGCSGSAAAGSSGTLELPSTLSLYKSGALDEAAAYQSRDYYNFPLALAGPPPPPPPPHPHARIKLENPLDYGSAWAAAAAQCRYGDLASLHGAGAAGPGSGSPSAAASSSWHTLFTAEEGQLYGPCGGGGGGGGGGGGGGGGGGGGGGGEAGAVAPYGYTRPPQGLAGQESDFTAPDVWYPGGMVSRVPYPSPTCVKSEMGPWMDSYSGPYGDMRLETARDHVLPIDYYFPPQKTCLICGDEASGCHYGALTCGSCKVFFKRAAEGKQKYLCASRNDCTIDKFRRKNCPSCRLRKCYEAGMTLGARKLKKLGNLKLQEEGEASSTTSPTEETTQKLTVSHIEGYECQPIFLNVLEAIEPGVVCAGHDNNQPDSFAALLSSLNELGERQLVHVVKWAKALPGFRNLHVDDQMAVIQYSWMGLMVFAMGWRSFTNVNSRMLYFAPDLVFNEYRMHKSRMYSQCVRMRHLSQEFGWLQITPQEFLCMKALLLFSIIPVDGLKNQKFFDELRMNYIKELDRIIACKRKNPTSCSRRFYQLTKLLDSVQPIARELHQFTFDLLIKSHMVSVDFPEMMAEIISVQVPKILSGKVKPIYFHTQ

Androgen receptor [4] = molecular target: T1, Androgen receptor
Description: Antagonist activity at androgen receptor (unknown origin) transfected in HEK293T cells co-transfected with luciferase reporter gene assessed as inhibition of transcriptional activity incubated for 18 to 20 hrs by luminescence plate reader analysis

CWR22R [5] = test: Antiproliferative activity against human 22Rv1 cells assessed as reduction in cell viability incubated for 24 hrs by CCK8 assay; conditions: 22Rv1, 24 h
LNCaP [6] = test: Antiproliferative activity against human LNCaP cells assessed as reduction in cell viability incubated for 24 hrs by CCK8 assay
Androgen receptor [7] = molecular target: T2, Androgen receptor (Rattus norvegicus, UniProt P15207); test: Binding affinity to GST/His-tagged recombinant rat androgen receptor (606 to 902 residues) ligand binding domain expressed in baculovirus expression system assessed as dissociation constant by Biolayer interferometric analysis
T2 sequence (P15207 whole entry): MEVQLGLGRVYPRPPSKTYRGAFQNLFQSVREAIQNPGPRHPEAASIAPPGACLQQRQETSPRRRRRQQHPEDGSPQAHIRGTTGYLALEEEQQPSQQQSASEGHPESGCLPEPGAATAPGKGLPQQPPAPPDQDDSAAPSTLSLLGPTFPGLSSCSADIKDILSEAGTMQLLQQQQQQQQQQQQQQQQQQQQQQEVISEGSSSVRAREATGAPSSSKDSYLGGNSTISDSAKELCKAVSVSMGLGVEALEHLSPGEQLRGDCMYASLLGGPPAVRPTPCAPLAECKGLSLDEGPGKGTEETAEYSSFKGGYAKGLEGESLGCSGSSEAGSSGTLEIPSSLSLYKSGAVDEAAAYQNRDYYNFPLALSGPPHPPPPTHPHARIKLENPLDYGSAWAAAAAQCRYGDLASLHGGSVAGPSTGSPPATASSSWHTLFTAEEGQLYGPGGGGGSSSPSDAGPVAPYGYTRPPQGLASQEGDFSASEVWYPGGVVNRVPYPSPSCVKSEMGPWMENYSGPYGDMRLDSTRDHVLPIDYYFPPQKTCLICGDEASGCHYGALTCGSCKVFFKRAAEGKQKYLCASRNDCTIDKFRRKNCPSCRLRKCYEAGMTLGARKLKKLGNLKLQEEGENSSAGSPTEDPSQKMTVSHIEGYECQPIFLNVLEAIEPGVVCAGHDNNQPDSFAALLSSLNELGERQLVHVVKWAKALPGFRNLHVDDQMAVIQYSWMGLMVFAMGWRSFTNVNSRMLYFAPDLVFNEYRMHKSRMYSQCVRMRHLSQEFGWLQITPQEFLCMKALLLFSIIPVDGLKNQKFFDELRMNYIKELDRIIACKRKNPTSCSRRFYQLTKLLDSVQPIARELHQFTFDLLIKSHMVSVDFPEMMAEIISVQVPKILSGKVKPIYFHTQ

| IC50 (Androgen receptor [3]) | IC50 (Androgen receptor [4]) | IC50 (LNCaP [6]) | Kd (Androgen receptor [7]) | SMILES | inhibition at 10 µM (LNCaP [1]) | inhibition at 10 µM (CWR22R [2]) | IC50 (CWR22R [5]) |
| --- | --- | --- | --- | --- | --- | --- | --- |
| – | – | – | – | N#Cc1ccc(O[C@H]2CC[C@H](NC(=O)c3ccc(N4CCC(CN5CCN(CC[S+]([O-])CCCC(F)(F)C(F)(F)F)CC5)CC4)nn3)CC2)cc1Cl (stereo partly drawn) | 13% | < 10% | – |
| 3.67 nM | – | – | – | N#Cc1ccc(O[C@H]2CC[C@H](NC(=O)c3ccc(N4CCC(CC5CN(CCCF)C5)CC4)nn3)CC2)cc1Cl | 21% | < 10% | – |
| – | – | – | – | N#Cc1ccc(O[C@H]2CC[C@H](NC(=O)c3ccc(N4CCC(N5CC(CF)C5)CC4)nn3)CC2)cc1Cl | 15% | < 10% | – |
| 12.4 nM | > 10000 nM | – | – | N#Cc1ccc(O[C@H]2CC[C@H](NC(=O)c3ccc(N4CCC(CN5CCN(CCCC(F)(F)C(F)(F)F)CC5)CC4)nn3)CC2)cc1Cl | < 10% | < 10% | – |
| – | – | – | – | N#Cc1ccc(O[C@H]2CC[C@H](NC(=O)c3ccc(N4CCC(CN5CCN(c6ccc(/C=C/C(=O)O)cc6)CC5)CC4)nn3)CC2)cc1Cl | 36% | < 10% | – |
| 6.81 nM | 394 nM | 6860 nM | – | N#Cc1ccc(O[C@H]2CC[C@H](NC(=O)c3ccc(N4CCC(CN5CCN(c6ccc(NC7CN(CCCF)C7)cc6)CC5)CC4)nn3)CC2)cc1Cl | > 50% | > 50% | 5120 nM |
| – | – | – | 590 nM | N#Cc1ccc(O[C@H]2CC[C@H](NC(=O)c3ccc(N4CCC(Cc5ccc(NC6CN(CCCF)C6)cc5)CC4)nn3)CC2)cc1Cl | – | – | – |
| – | – | – | – | N#Cc1ccc(O[C@H]2CC[C@H](NC(=O)c3ccc(-c4ccc(NC5CN(CCCF)C5)cc4)nn3)CC2)cc1Cl | 13% | 28% | – |
| – | – | – | – | N#Cc1ccc(O[C@H]2CC[C@H](NC(=O)c3ccc(N4CCC(CN5CCN(C6CN(CCCF)C6)CC5)CC4)nn3)CC2)cc1Cl | 17% | 29% | – |
| 5.41 nM | > 10000 nM | – | – | N#Cc1ccc(O[C@H]2CC[C@H](NC(=O)c3ccc(N4CCC(CNC5CN(CCCF)C5)CC4)nn3)CC2)cc1Cl | 10% | < 10% | – |
| – | – | – | – | N#Cc1ccc(O[C@H]2CC[C@H](NC(=O)c3ccc(-c4ccc(NCCCCCF)cc4)nn3)CC2)cc1Cl | < 10% | < 10% | – |
| – | – | – | – | CCCNc1ccc(CC2CCN(c3ccc(C(=O)N[C@H]4CC[C@H](Oc5ccc(C#N)c(Cl)c5)CC4)nn3)CC2)cc1 | < 10% | < 10% | – |
| – | – | – | – | N#Cc1ccc(O[C@H]2CC[C@H](NC(=O)c3ccc(N4CCC(Cc5ccc(NCCCF)cc5)CC4)nn3)CC2)cc1Cl | < 10% | < 10% | – |

| SMILES | IC50 (Androgen receptor [3]) | IC50 (Androgen receptor [4]) | IC50 (LNCaP [6]) | Kd (Androgen receptor [7]) | inhibition at 10 µM (LNCaP [1]) | inhibition at 10 µM (CWR22R [2]) | IC50 (CWR22R [5]) |
| --- | --- | --- | --- | --- | --- | --- | --- |
| N#Cc1ccc(O[C@H]2CC[C@H](NC(=O)c3cccnn3)CC2)cc1Cl | 1.52 nM | 60.8 nM | – | – | < 10% | < 10% | – |
